Measurements published in patent publication US5382593A, “New 3-(hydroxybenzylidenyl)-indolin-2-ones” (Adir et Compagnie, priority 1992, dated 1995).

Key:
[1] = tested on: cyclooxygenase of human granulocytes; experiment: Inhibition of PGE2 secretion (cyclooxygenase) by human granulocytes stimulated by calcium ionophore A23187; format: cell-based; conditions: concentration of 10^-5 M, A23187 5×10^-6 M, read-out: inhibition of the production of PGE2
Source text: The aim of this study is to measure the inhibiting activity of the compounds of the invention on the secretion of prostaglandin E2 (PGE2), one of the principal prostanoids produced by the cyclooxygenase of human granulocytes stimulated by the calcium ionophore A23187.
Human venous blood from blood donors who have not taken medicaments for 2 weeks is drawn into polypropylene tubes containing 1 volume of anti-coagulant (2.73% citric acid, 4.48% sodium citrate, 2% glucose) per 10 volumes of blood.
In the hour following taking the samples, 6% dextran is added to the blood (0.3 cm^3 /cm^3 of blood). After incubation for 30 min. at 37° C., the plasma rich in white corpuscles is centrifuged at a speed of 100 g for 5 min. at 4° C. […]
After centrifugation at a speed of 420 g for 30 min. at 4° C., the sediment rich in granulocytes is resuspended in 5 cm^3 of phosphate buffer and centrifuged at a speed of 100 g for 5 min. at 4° C. Finally, the granulocytes are counted and the density is adjusted to 3×10^6 cells/cm^3 of phosphate buffer.
The cells (3×10^6 cells/cm^3) are preincubated at 37° C. for 15 min. in the absence or presence of the products to be tested at the desired concentration. […] The base level is measured using cells without either the products to be tested or A23187. […]
The quantity of PGE2 produced is measured by a radioimmunological assay (RIA). […]

[2] = tested on: lipoxygenase, human polynuclear cells; experiment: Inhibition of LTB4 production (lipoxygenase) by human polynuclear cells activated by calcium ionophore A 23187; format: cell-based; conditions: concentration of 10^-5 M
Description: The production of the principal prostanoid, resulting from lipoxygenase, produced by human polynuclear cells: leucotriene B4 (LTB4) is measured by a radioimmunological assay.

Question: Which inhibition at 10 µM [1] does the source give for `CC(C)(Sc1cc(C(C)(C)C)c(O)c(C(C)(C)C)c1)Sc1cc(C(C)(C)C)c(O)c(C(C)(C)C)c1` [probucol] here?
Answer: ~40%

Question: What about the inhibition at 10 µM [2] of the same compound?
Answer: ~40%
